Laboratory results from PMC7178819, “6,7-Dimethoxy-2-phenethyl-1,2,3,4-tetrahydroisoquinoline amides and corresponding ester isosteres as multidrug resistance reversers” (Journal of Enzyme Inhibition and Medicinal Chemistry, 2020).

Legend:
P-gp [1] = target: T1, P-gp (Homo sapiens, UniProt P08183); assay: ATP cell depletion (ATPlite assay) in MDCK-MDR1 cells; format: cell-based; conditions: Yes/No
T1 construct: expressed in transfected cells; host or cells: MDCK-MDR1 (Madin-Darby Canine Kidney cells, gift of Prof. P. Borst, NKI-AVL)
T1 sequence (P08183 whole entry): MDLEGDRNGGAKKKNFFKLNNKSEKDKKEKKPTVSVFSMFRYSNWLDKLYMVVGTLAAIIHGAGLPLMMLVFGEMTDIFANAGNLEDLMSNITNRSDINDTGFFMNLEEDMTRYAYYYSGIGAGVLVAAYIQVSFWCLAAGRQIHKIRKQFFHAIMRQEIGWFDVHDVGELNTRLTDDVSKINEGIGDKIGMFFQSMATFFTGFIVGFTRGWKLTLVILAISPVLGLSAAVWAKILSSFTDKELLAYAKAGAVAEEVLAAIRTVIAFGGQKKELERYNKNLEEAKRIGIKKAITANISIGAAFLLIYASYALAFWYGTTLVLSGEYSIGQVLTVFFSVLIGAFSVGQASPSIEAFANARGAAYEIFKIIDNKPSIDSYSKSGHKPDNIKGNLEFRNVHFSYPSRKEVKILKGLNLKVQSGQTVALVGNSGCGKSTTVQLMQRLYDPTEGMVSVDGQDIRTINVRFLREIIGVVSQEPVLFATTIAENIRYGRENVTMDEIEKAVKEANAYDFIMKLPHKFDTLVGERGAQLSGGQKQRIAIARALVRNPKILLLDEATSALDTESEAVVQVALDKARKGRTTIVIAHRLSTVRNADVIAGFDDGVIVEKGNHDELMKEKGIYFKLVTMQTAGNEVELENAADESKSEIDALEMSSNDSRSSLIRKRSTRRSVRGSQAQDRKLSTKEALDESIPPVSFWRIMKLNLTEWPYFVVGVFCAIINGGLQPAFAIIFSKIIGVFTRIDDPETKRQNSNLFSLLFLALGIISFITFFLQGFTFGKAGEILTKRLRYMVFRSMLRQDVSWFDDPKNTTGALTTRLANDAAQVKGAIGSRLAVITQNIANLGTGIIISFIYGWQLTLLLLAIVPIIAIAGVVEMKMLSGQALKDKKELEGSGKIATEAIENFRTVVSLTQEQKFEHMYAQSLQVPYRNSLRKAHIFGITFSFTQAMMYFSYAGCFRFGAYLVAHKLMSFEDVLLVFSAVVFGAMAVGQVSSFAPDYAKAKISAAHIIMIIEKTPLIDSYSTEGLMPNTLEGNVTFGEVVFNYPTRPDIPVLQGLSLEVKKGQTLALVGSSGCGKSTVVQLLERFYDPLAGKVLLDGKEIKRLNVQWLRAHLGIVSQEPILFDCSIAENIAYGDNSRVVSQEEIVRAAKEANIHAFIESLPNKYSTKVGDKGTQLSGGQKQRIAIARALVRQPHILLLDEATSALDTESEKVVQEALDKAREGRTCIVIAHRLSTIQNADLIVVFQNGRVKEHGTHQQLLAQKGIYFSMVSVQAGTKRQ
Experimental: The MDCK-MDR1 cells were seeded into 96-well microplate in 100 µL of complete medium at a density 20,000 cells per well. The plate was incubated overnight (O/N) in a humidified atmosphere 5% CO2 at 37 °C. The medium was removed and 100 µL of complete medium either alone or containing different concentrations (ranging from 1 to 100 µM) of test compounds was added. The plate was incubated for 2 h in a humidified 5% CO2 atmosphere at 37 °C. 50 µL of mammalian cell lysis solution was added to all wells and the plate shacked for five minutes in an orbital shaker. 50 µL of substrate solution was added to all wells and the plate shacked for five minutes in an orbital shaker. The plate was dark adapted for ten minutes and the luminescence was measured.
(§1) The interaction potency between the designed compounds and P-gp was evaluated by measuring the transport inhibition of the pro-fluorescent probe Calcein-AM, that is a P-gp substrate, in a cell line overexpressing P-gp (MDCK-MDR1)[47]. The P-gp interacting profile was further investigated with two other assays: the Apparent Permeability (Papp) determination (BA/AB) in Caco-2 cell monolayer[48]^,[49], and the ATP cell depletion in the MDCK-MDR1 cell line[50]. Taking into account the results of the combined tests, an interacting compound can be classified as substrate or inhibitor. Papp determination measures the ratio between two fluxes: from the basolateral to apical compartments (BA, representative of passive diffusion) and from the apical to basolateral compartments (AB, representative of active transport). […] In the same manner, if (BA/AB) >2, the compound should probably be classified as a substrate. […] The selectivity of ligands 1–26 was evaluated by detecting their activity towards the other ABC transporters MRP1 and BCRP, by measuring the inhibition of the efflux of Calcein-AM (i.e., also a MRP1 substrate) in cells overexpressing MRP1 (MDCK-MRP1 cells), and the inhibition of the efflux of the fluorescent probe Hoechst 33342 (i.e. a BCRP substrate) in cells overexpressing BCRP (MDCK-BCRP cells), respectively.

[2] = Apparent permeability (Papp) determination (BA/AB) in Caco-2 cell monolayer; format: in vitro ADME; conditions: human, Caco-2 monolayer
Experimental: Caco-2 cells were seeded onto a Millicell® assay system (Millipore), where a cell monolayer is set in between a filter cell and a receiver plate, at a density of 10 000 cells/well[46]. The culture medium was replaced every 48 h and the cells kept for 21 days in culture. The Trans Epithelial Electrical Resistance (TEER) of the monolayers was measured daily, before and after the experiment, using an epithelial volt-ohmmeter (Millicell®-ERS). Generally, TEER values greater than 1000 Ω for a 21 days culture, are considered optimal.
After 21 days of Caco-2 cell growth, the medium was removed from filter wells and from the receiver plate, which were filled with fresh HBSS buffer (Invitrogen). This procedure was repeated twice, and the plates were incubated at 37 °C for 30 min. After incubation time, the HBSS buffer was removed and drug solutions and reference compounds were added to the filter well at the concentration of 100 µM, while fresh HBSS was added to the receiver plate. The plates were incubated at 37 °C for 120 min. Afterwards, samples were removed from the apical (filter well) and basolateral (receiver plate) side of the monolayer to measure the permeability.
as §1

P-gp [3] = target: T1, P-gp; assay: Inhibition of Calcein-AM transport in MDCK-MDR1 cells; format: cell-based; conditions: Calcein-AM, MDCK-MDR1 cells; mean ± SEM of two experiments
Experimental: These experiments were carried out as previously described by Teodori et al. with minor modifications. Each cell line (30 000 cells per well) was seeded into black CulturePlate 96/wells plate with 100 µL medium and allowed to become confluent overnight. 100 µL of test compounds were solubilised in culture medium and added to monolayers, with final concentrations ranging from 1 nM to 100 µM. 96/Wells plate was incubated for 30 min in a humidified atmosphere 5% CO2 at 37 °C. Calcein-AM was added in 100 µL of Phosphate Buffered Saline (PBS) to yield a final concentration of 2.5 µM and plate was incubated for 30 min in a humidified atmosphere 5% CO2 at 37 °C. Each well was washed 3 times with ice cold PBS. Saline buffer was added to each well and the plate was read with Victor3 (PerkinElmer) at excitation and emission wavelengths of 485 and 535 nm, respectively. In these experimental conditions, Calcein cell accumulation in the absence and in the presence of tested compounds was evaluated and fluorescence basal level was estimated with untreated cells. In treated wells the increase of fluorescence with respect to basal level was measured. EC50 values were determined by fitting the fluorescence increase percentage versus log[dose].
The interaction potency between the designed compounds and P-gp was evaluated by measuring the transport inhibition of the pro-fluorescent probe Calcein-AM, that is a P-gp substrate, in a cell line overexpressing P-gp (MDCK-MDR1)[47]. The P-gp interacting profile was further investigated with two other assays: the Apparent Permeability (Papp) determination (BA/AB) in Caco-2 cell monolayer[48]^,[49], and the ATP cell depletion in the MDCK-MDR1 cell line[50]. […] Papp determination measures the ratio between two fluxes: from the basolateral to apical compartments (BA, representative of passive diffusion) and from the apical to basolateral compartments (AB, representative of active transport). […] In the same manner, if (BA/AB) >2, the compound should probably be classified as a substrate.

[4] = Stability test in human plasma (LC-MS/MS); format: in vitro ADME; conditions: human plasma; for half-life at 1 µM: human, 37 °C
Experimental: Each sample was prepared adding 10 µL of working solution 1 to 100 µL of tested matrix (PBS or human plasma) in micro centrifuge tubes. The obtained solutions correspond to 1 µM of analyte.
After the incubation, the samples were added with 300 µL of ISTD solution and centrifuged (room temperature for 5 min at 10,000 rpm). The supernatants were transferred in auto sampler vials and dried under a gentle stream of nitrogen.
The dried samples were dissolved in 1.0 ml of 10 mM of formic acid in mQ water: acetonitrile 80:20 solution. The obtained sample solutions were analysed by LC-MS/MS methods described in Supplementary material.
For this purpose, a series of experiments were carried out, adding a known amount of analyte in both phosphate buffer solution (PBS) and in human plasma. The samples were analysed by LC-MS/MS method operating in Multiple Reaction Monitoring (MRM) mode[55].
The analyte concentration (1 µM) used during the stability tests is generally smaller than the corresponding Michaelis–Menten constant (KM); therefore, the enzymatic degradation rate is described by a first-order kinetic. Then, by plotting the natural logarithm of the quantitative data versus the incubation time, a linear function can be used and its slope represents the degradation rate (k).

Row | SMILES | ATP cell depletion (P-gp [1]) | efflux ratio at 120 min, 100 µM [2] | EC50 (P-gp [3]) [nM] | half-life at 1 µM [4] [h] | t1/2 ([4]; reference compound for enzymatic activity of the batch) [h]
1 | COc1cc2c(cc1OC)CN(CCc1ccc(OC(=O)c3cnccn3)cc1)CC2 [Compound 24, 4–(2-(6,7-Dimethoxy-3,4-dihydroisoquinolin-2(1H)-yl)ethyl)phenyl pyrazine-2-carboxylate] | No | 4.9 | 1900 ± 320 | 0.7 ± 0.333 | –
2 | CCOC(=O)C(C)c1cccc(C(=O)c2ccccc2)c1 (stereo not drawn) [KEE, Ketoprofen ethyl ester, reference compound] | – | – | – | – | < 2
3 | COc1cc2c(cc1OC)CN(CCc1ccc(OC(=O)c3c(OC)cccc3OC)cc1)CC2 [Compound 17, 4–(2-(6,7-Dimethoxy-3,4-dihydroisoquinolin-2(1H)-yl)ethyl)phenyl 2,6-dimethoxybenzoate] | No | 6.2 | 150 ± 30 | ≥ 4 | –
4 | COc1cc2c(cc1OC)CN(CCc1ccc(OC(=O)c3cccnc3)cc1)CC2 [Compound 22, 4–(2-(6,7-Dimethoxy-3,4-dihydroisoquinolin-2(1H)-yl)ethyl)phenyl nicotinate] | No | 5 | 29400 ± 4980 | ≥ 4 | –
5 | COc1cc2c(cc1OC)CN(CCc1ccc(NC(=O)c3c(OC)cccc3OC)cc1)CC2 [Compound 4, N-(4–(2-(6,7-dimethoxy-3,4-dihydroisoquinolin-2(1H)-yl)ethyl)phenyl)-2,6-dimethoxybenzamide] | No | 5.5 | 7200 ± 1390 | ≥ 4 | –
6 | COc1ccc(C(=O)Oc2ccc(CCN3CCc4cc(OC)c(OC)cc4C3)cc2)cn1 [Compound 23, 4–(2-(6,7-Dimethoxy-3,4-dihydroisoquinolin-2(1H)-yl)ethyl)phenyl 6-methoxynicotinate] | No | 5.6 | 9240 ± 1810 | ≥ 4 | –
7 | COc1cc2c(cc1OC)CN(CCc1ccc(NC(=O)c3cccc4c(=O)c5cccc(OC)c5[nH]c34)cc1)CC2 [elacridar, reference compound] | Yes^g | – | – | – | –
8 | COc1ccc(C(=O)Nc2ccc(CCN3CCc4cc(OC)c(OC)cc4C3)cc2)cn1 [Compound 10, N-(4–(2-(6,7-dimethoxy-3,4-dihydroisoquinolin-2(1H)-yl)ethyl)phenyl)-6-methoxynicotinamide] | No | 7.5 | 2300 ± 440 | ≥ 4 | –
9 | COc1cc2c(cc1OC)CN(CCc1ccc(NC(=O)c3ccccc3OC)cc1)CC2 [Compound 2, N-(4–(2-(6,7-dimethoxy-3,4-dihydroisoquinolin-2(1H)-yl)ethyl)phenyl)-2-methoxybenzamide] | No | 5.9 | 440 ± 82 | ≥ 4 | –
10 | COc1cc2c(cc1OC)CN(CCc1ccc(NC(=O)c3cccc4ccccc34)cc1)CC2 [Compound 6, N-(4–(2-(6,7-dimethoxy-3,4-dihydroisoquinolin-2(1H)-yl)ethyl)phenyl)-1-naphthamide] | No | 3.6 | 670 ± 120 | ≥ 4 | –
11 | COc1ccc2nccc(C(=O)Nc3ccc(CCN4CCc5cc(OC)c(OC)cc5C4)cc3)c2c1 [Compound 13, N-(4–(2-(6,7-dimethoxy-3,4-dihydroisoquinolin-2(1H)-yl)ethyl)phenyl)-6-methoxyquinoline-4-carboxamide] | No | 6.5 | 660 ± 130 | ≥ 4 | –
12 | COc1cc2c(cc1OC)CN(CCc1ccc(NC(=O)c3cccnc3)cc1)CC2 [Compound 9, N-(4–(2-(6,7-dimethoxy-3,4-dihydroisoquinolin-2(1H)-yl)ethyl)phenyl)nicotinamide] | No | 7.3 | 6400 ± 1260 | ≥ 4 | –
13 | COc1ccc2nccc(C(=O)Oc3ccc(CCN4CCc5cc(OC)c(OC)cc5C4)cc3)c2c1 [Compound 26, 4–(2-(6,7-Dimethoxy-3,4-dihydroisoquinolin-2(1H)-yl)ethyl)phenyl 6-methoxyquinoline-4-carboxylate] | No | 8.7 | 1400 ± 260 | 2.07 ± 0.45 | –
14 | COc1cc2c(cc1OC)CN(CCc1ccc(NC(=O)c3cnccn3)cc1)CC2 [Compound 11, N-(4–(2-(6,7-dimethoxy-3,4-dihydroisoquinolin-2(1H)-yl)ethyl)phenyl)pyrazine-2-carboxamide] | No | 4.9 | 1900 ± 320 | ≥ 4 | –
15 | COc1cc2c(cc1OC)CN(CCc1ccc(NC(=O)c3c(OC)ccc4ccccc34)cc1)CC2 [Compound 7, N-(4–(2-(6,7-dimethoxy-3,4-dihydroisoquinolin-2(1H)-yl)ethyl)phenyl)-2-methoxy-1-naphthamide] | No | 11.8 | 120 ± 22 | ≥ 4 | –
